The values that follow come from patent US6001810A, “Methods for treating retroviral infection” (Eli Lilly and Company, priority 1990, dated 1999).

Data set [1] relates to HTLV-IIIB strain of HIV-1. Description: Inhibition of HIV-1 cytopathic effect in CEM cells (XTT). Particulars: for IC25 (concentration that reduced CPE by 25%): Table V first column. The class given is cell-based. As to the method:
(§1) Quantitative evaluation of the viral inhibition were performed on the T-cell lymphoblastoid cell lines MT-2 (Harada et al., 1985, Science 229:563-566) and CEM (Nara and Fischinger, 1988, Nature 332:469-470). The cells were infected with the HTLV-IIIB strain of HIV-1 from the supernatant fluid of infected human T-lymphocyte cell line H9 (Popovic, M. et al., 1984, Science 224:497-500). Each of these three cell lines are publicly available from the National Institutes of Health (NIH) AIDS Research and Reference Reagent Program. The H9/HTLC-IIIB cell line is available under catalogue number 231, while CEM cell line is available under catalogue number 117 and the MT-2 cell line is available under the catalogue number 237. MT-2 and CEM cells were grown in RPMI 1640 medium supplemented with 10% (v/v) fetal calf serum, 100 U/ml penicillin, 100 μg/ml streptomycin and 25 mM HEPEs buffer. H9 cells were grown in the same medium except 20% fetal calf serum was used. The peptides were diluted in the medium used for MT-2 and CEM cells. Cell cultures were maintained in disposable tissue culture labware at 37° C. in a humidified atmosphere of 5% CO2 in air.
(§2) The inhibitors were dissolved in DMSO at 40 mg/ml or sterile water at 2 mg/ml, then dilutions were made in medium. The dilutions were added to micro-titer plates in 100 μl/well aliquots so that the high drug concentration for each screen was 100 μg/ml after the addition of cells to the well.
(§3) Susceptible MT-2 and CEM cells were grown and the cell population determined by a trypan blue viable cell count. The desired total number of cells were placed in a sterile, disposable 50 ml conical centrifuge tube and virus was added to give an MOI (Multiplicity of Infection) of 0.03 TCID50 /cell (Tissue Culture Infectious Dose) on MT-2 cells and approximately 0.12 TCID50 /cell on CEM cells. Fresh medium was added to adjust the cell density to 1×10^5 cells/ml, then the virus-cell suspension was incubated at 37° C. for 1 to 2 hours until plating. Uninfected controls cell were prepared in the same manner but without the addition of virus. Infected and uninfected cells were added to plates in 100 μl/well aliquots to give a starting cell number of 1×10^4 cells/well. The plates were incubated for seven days in a humidified atmosphere of 5% CO2 in air.
Reagents for colorimetric evaluation of cell viability were prepared by mixing the tetrazolium reagent, XTT, and phenazine methosulfate (PMS) to final concentrations of 200 μg/ml and 0.02 mM, respectively. […] The plates were read with the sealers in place in a Vmax Plate Reader® at 450 nm and 650 nm. The cytopathic effect (CPE) and percentage of cell viability were then calculated. […]
On the technique in general: Damage to the host cells serves as the signal in cytopathic effect assays.

Data set [2] relates to CEM cells. The class given is cell-based. As to the method: as §1, §2, §3
Reagents for colorimetric evaluation of cell viability were prepared by mixing the tetrazolium reagent, XTT, and phenazine methosulfate (PMS) to final concentrations of 200 μg/ml and 0.02 mM, respectively. Fifty microliters of the XTT-PMS solution was added to each well of the microtiter plates, then the plates were incubated in the CO2 incubator for another four hours. The lids were removed from the plates and replaced with adhesive plate sealers. The plates were read with the sealers in place in a Vmax Plate Reader® at 450 nm and 650 nm. The cytopathic effect (CPE) and percentage of cell viability were then calculated.
The activity and cytotoxicity of several other peptides were also assayed in CEM cells using the same procedure as described above. These assays also included toxicity and activity levels of both 25% and 50%.

Data set [3] concerns Mo-MuLV. Description: Moloney Murine Leukemia Virus Assay, CPE inhibition in SC-1/XC cells. It is filed as cell-based. More on the design: key: 4+(>90%); 3+(>60%); 2+(>40%); 1+(>20%); -(Negative). As to the method: (§4) About 3 to 5×10^3 SC-1 cells (available from the American Type Culture Collection, Rockville, Md. under the accession number ATCC CRL-1404) per well of a 96-well microtiter plate were seeded in minimal essential medium supplemented with 5% fetal bovine serum, penicillin (150 U/ml), Streptomycin (150 μg/ml) and polybrene (2 μg/ml), then infected with Mo-MuLV (Multiplicity of Infection=10 PFU/cell) the next day. The virus was allowed to adsorb to the cells for 1 hour, then medium containing serial dilutions of P-7, P-9 or medium alone was added to the cells. Pepstatin A ([…]-Val-Val-Statine-Ala-Statine) and AZT (3'-Azido-3'-deoxythymidine) were also added as controls. After incubation for 5 days (when cells were confluent) the SC-1 cells were UV irradiated for 10 seconds and 5 to 8×10^4 XC cells (ATCC CCL-165) per well were added. Generally, about two additional days of incubation were required to obtain full virus-induced cytopathic effect.

The test system of data set [4] is MLV. As to the kind of experiment: MLV XC Plaque Reduction Assay - Virus Yield. It is filed as cell-based, Murine Leukemia Virus. As to the method:
as §4
The assay described above was also preferred to determine the virus yield. In this experiment, the supernatents were removed from the SC-1 cells four days after infection and tested for MLV titers, using the XC-plaque assay as previously described.
On the technique in general: Plaque reduction counts the foci of infection that form in a cell layer.

Data set [5] has as its system complex of Friend's Spleen-Forcus Virus (Fr. SFFV) and Friend's Murine Leukemia Virus (F. MLV). As to the kind of experiment: In vivo inhibition of Friend Virus Complex in DBA/2 mice. Further details: Spleen / Inhibition % (spleen): dose or concentration left out as unconfirmed. Conditions: individual infected DBA/2 mice. Here is the method: Formulations of peptides P-9 and P-7 were prepared for injection into DBA/2 mice. The formulations were prepared by dissolving the purified peptides in Emulphor™ EL620 which was purchased from the GAF Chemical Corporation, 1361 Alps Row, Wayne, N.J., 07470. The drugs were injected intraperitoneally one hour before the mice were infected with a complex of Friend's Spleen-Forcus Virus (Fr. SFFV) and Friend's Murine Leukemia Virus (F. MLV). These viruses ordinarily cause polycythermia (elevated levels of red blood cells) and splenomegaly (enlargement of spleen) within two to three week post-infection. The mice were injected twice daily with the inhibitor formulation for twenty days after the infection.
*Drugs were dissolved in Emulphor ™, injected IP one hour before
infection, then twice daily for 20 days.
^a Titers of Fr.MLV in the spleens (supernatents of 10% homogenates)
were determined by XC plaque assay.

In data set [6] the test system is HTLV-IIIB strain of HIV-1. As to the kind of experiment: Inhibition of HIV-1 cytopathic effect in MT-2 cells (XTT). It is filed as cell-based. Particulars: 7 days. As to the method: as §1, with “H9 cells were grown in the same medium except 20% fetal calf serum was used. The peptides were diluted in the medium used for MT-2 and CEM cells. Cell cultures were maintained in disposable tissue culture labware at 37° C. in a humidified atmosphere of 5% CO2 in air.” left out
Susceptible MT-2 and CEM cells were grown and the cell population determined by a trypan blue viable cell count. […]
(§5) Reagents for colorimetric evaluation of cell viability were prepared by mixing the tetrazolium reagent, XTT, and phenazine methosulfate (PMS) to final concentrations of 200 μg/ml and 0.02 mM, respectively. […] The plates were read with the sealers in place in a Vmax Plate Reader® at 450 nm and 650 nm. The cytopathic effect (CPE) and percentage of cell viability were then calculated.

In data set [7] the test system is MT-2 cells. The class given is cell-based. Here is the method:
as §1, §2, §3, §5

As usually defined, the inhibition is the drop in the measured response relative to a control, in per cent.

≈ marks a conversion by molar mass, not a printed value. Where “and” joins values, the source holds several entries; their conditions need not be identical. Equal entries are not always repeated. Non-standard residues stand in square brackets, D forms with d. Residues, ends and D or L forms follow the SMILES beside them. Phe(4-NH2) = Nc1ccc(C[C@H](N)C(=O)O)cc1; 1Nal = N[C@@H](Cc1cccc2ccccc12)C(=O)O; Sta = CC(C)C[C@H](N)[C@@H](O)CC(=O)O Some results are limits rather than exact numbers.

Turning to `Cc1cn([C@H]2C[C@H](N=[N+]=[N-])[C@@H](CO)O2)c(=O)[nH]c1=O` [AZT, 3'-Azido-3'-deoxythymidine], the IC50 in data set [1] (Human immunodeficiency virus 1, IIIB, CCRF-CEM, Table V, read-out: IC50 (concentration that reduced CPE by 50%)) is less than 0.0032 µg/mL. Besides, in data set [1], the “IC25 (concentration that reduced CPE by 25%)” value was less than 0.0032 µg/mL. In addition, the “Maximum inhibition reached (CPE)” value in data set [1] (inhibition decreased as drug concentration increased) was determined as 60%. For the same compound, the “IC25 (Table V)” value in data set [2] is greater than 1.0 µg/mL. The “TC50 (concentration that reduced cell viability by 50%)” value in data set [2] was greater than 1.0 µg/mL. The CPE inhibition score entry in data set [3] (.0004 μg/ml) was “-”; in data set [3] (.0008 μg/ml), “-”; in data set [3] (.003 μg/ml) it was 2+ (2+(>40%)); in data set [3] (.006 μg/ml), 3+ (3+(>60%)); in data set [3] (.012 μg/ml), 4+ (4+(>90%)); in data set [3] (.015 μg/ml), 1+ (1+(>20%)). In addition, the CPE inhibition score in data set [3] (.025 μg/ml), in data set [3] (.05 μg/ml), in data set [3] (.1 μg/ml) and in data set [3] (.2 μg/ml) was 4+ (4+(>90%)) in each case. Also, the Yield is given as 2.9 × 10^4 PFU/ML in data set [4] (3.125 ng/ml), 80 PFU/ML in data set [4] (6.25 ng/ml), less than 10 PFU/ML in data set [4] (12.5 ng/ml) and less than 10 PFU/ML in data set [4] (25 ag/ml). Further, the “% Inhibition (virus yield)” value in data set [4] (25 ag/ml) is listed as greater than 99%. The inhibition at 0.003125 µg/mL in data set [4] (Murine leukemia virus, 3.125 ng/ml) worked out at 98%. For the same compound, the inhibition at 0.00625 µg/mL in data set [4] (Murine leukemia virus, 6.25 ng/ml) was greater than 99%. In data set [4] (Murine leukemia virus, 12.5 ng/ml), this compound gave an inhibition at 0.0125 µg/mL greater than 99%. Besides, the “Inhibiton % (virus titer)” value in data set [5] (100 pg IP twice daily for 20 days) was > 99% and 95%. Moreover, in data set [5] (100 pg IP twice daily for 20 days, supernatents of 10% homogenates), the “Virus Titer (Fr.MLV in the spleens, XC plaque assay)” value was 500 PFU/ml and 20,000 PFU/ml. For the same compound, in data set [5] (IP one hour before infection, then twice daily for 20 days), the Spleen was 0.17 gm and 0.21 gm. For the same compound, the “Inhibition % (spleen)” value in data set [5] (IP twice daily for 20 days) is 85% and 81%.
On to `Nc1ccn([C@H]2CC[C@@H](CO)O2)c(=O)n1` [DDC, 2', 3Dideoxycytidine], for which the “IC25 (concentration that reduced CPE by 25%)” value in data set [1] was 0.0032 µg/mL (≈ 0.0152 µM). In addition, the “ID50 (minimum drug concentration that inhibited CPE by 50%)” value in data set [6] is 0.11 µg/mL and 0.10 µg/mL. Moreover, in data set [2], the “IC25 (Table V)” value worked out at 0.04 µg/mL (≈ 0.189 µM) and the “TC50 (concentration that reduced cell viability by 50%)” value came out at 0.8 µg/mL (≈ 3.79 µM). The “MTC50 (minimum cytotoxic drug concentration that reduces cell viability to 50%)” value in data set [7] was greater than 10 µg/mL.
On to `CC(=O)N[C@@H](Cc1cccc2ccccc12)C(=O)N1CCC[C@H]1C(=O)N[C@@H](Cc1ccccc1)C(=O)N[C@H](C(=O)N[C@@H](CC(C)C)[C@@H](O)CC(=O)N[C@@H](CC(C)C)C(=O)N[C@@H](Cc1ccccc1)C(N)=O)C(C)C` [P-7, Ac NA Pro Phe Val Statine Leu Phe NH2] (Ac-[1Nal]PFV[Sta]LF-NH2), for which, in data set [2], the “IC25 (Table V)” value was greater than 10 µg/mL, the “MTC50 (minimum cytotoxic drug concentration that reduces cell viability to 50%)” value is 21 µg/mL and the “TC50 (concentration that reduced cell viability by 50%)” value is greater than 10 µg/mL. In addition, the “MTC50 (minimum cytotoxic drug concentration that reduces cell viability to 50%)” value in data set [7] worked out at 24.4 µg/mL.
Regarding `CC(C)C[C@H](NC(=O)C[C@H](O)[C@H](CC(C)C)NC(=O)[C@@H](NC(=O)[C@H](Cc1ccccc1)NC(=O)[C@@H]1CCCN1C(=O)[C@@H](N)Cc1c[nH]cn1)C(C)C)C(=O)N[C@@H](Cc1ccccc1)C(=O)N[C@@H](Cc1ccc(N)cc1)C(N)=O` [P-15, H-His Pro Phe Val Statine Leu Phe paF NH2] (H-HPFV[Sta]LF[Phe(4-NH2)]-NH2), the “MTC50 (minimum cytotoxic drug concentration that reduces cell viability to 50%)” value in data set [2] and in data set [7] was greater than 100 µg/mL throughout.
